Data: the supplement of paper PMC10307832

What was measured:
Assay in all cases: relative viability (nuclei count vs DMSO), 5 days (fraction); higher = more cells survive
CUDC-101 + Alpelisib = compound: C#Cc1cccc(Nc2ncnc3cc(OC)c(OCCCCCCC(=O)NO)cc23)c1 [CUDC-101] + Cc1nc(NC(=O)N2CCC[C@H]2C(N)=O)sc1-c1ccnc(C(C)(C)C(F)(F)F)c1 [Alpelisib] (partner 2 µM)
How it was run: (§1)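 A single step with final 0.05% Triton X-100, 1% formaldehyde and 1 ug/ml Hoechst fixed the cells and stained nuclei 5 days after treatment. Lung cancer cell lines in 1536-well plates had been treated by pin tool the day after seeding with one drug alone or a fixed anchor-drug dose plus five library-drug doses (not always all listed) in √10 steps, and nuclei were counted on 4× images. Relative viability is the ratio of nuclei in treated wells to nuclei in vehicle wells, taken as the median of duplicate plates.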

[1] = compound: C1=CC=C2C(=C1)N=C(S2)C(C#N)C3=NC(=NC=C3)NCCC4=CN=CC=C4 + COc1cc2c(Oc3ccc(NC(=O)C4(C(=O)Nc5ccc(F)cc5)CC4)cc3F)ccnc2cc1OCCCN1CCOCC1 [Foretinib] (partner 0.25 µM)
How it was run: as §1

[2] = compound: C1=CC=C2C(=C1)N=C(S2)C(C#N)C3=NC(=NC=C3)NCCC4=CN=CC=C4 + C[C@@H](Oc1cc(-c2cnn(C3CCNCC3)c2)cnc1N)c1c(Cl)ccc(F)c1Cl [Crizotinib] (partner 1 µM)
How it was run: as §1

NVP-TAE684 + OSI-027 = compound: COc1cc(N2CCC(N3CCN(C)CC3)CC2)ccc1Nc1ncc(Cl)c(Nc2ccccc2S(=O)(=O)C(C)C)n1 [NVP-TAE684] + COc1cccc2cc(-c3nc([C@H]4CC[C@H](C(=O)O)CC4)n4ncnc(N)c34)[nH]c12 [OSI-027] (partner 0.5 µM)
How it was run: as §1

## HOP-62
CUDC-101 + Alpelisib; first compound 0.01 µM
  relative viability: 0.777
CUDC-101 + Alpelisib; first compound 0.03162 µM
  relative viability: 0.792
CUDC-101 + Alpelisib; first compound 0.1 µM
  relative viability: 1.11
CUDC-101 + Alpelisib; first compound 0.3162 µM
  relative viability: 1.05
CUDC-101 + Alpelisib; first compound 1 µM
  relative viability: 0.741
[1]; first compound 0.005 µM
  relative viability: 0.891
[1]; first compound 0.01581 µM
  relative viability: 1.14
[1]; first compound 0.05 µM
  relative viability: 1.14
[1]; first compound 0.1581 µM
  relative viability: 1.26
[1]; first compound 0.5 µM
  relative viability: 0.952
[2]; first compound 0.005 µM
  relative viability: 0.779
[2]; first compound 0.01581 µM
  relative viability: 0.815
[2]; first compound 0.05 µM
  relative viability: 0.675
[2]; first compound 0.1581 µM
  relative viability: 1.01
[2]; first compound 0.5 µM
  relative viability: 0.725
NVP-TAE684 + OSI-027; first compound 0.2 µM
  relative viability: 0.902
NVP-TAE684 + OSI-027; first compound 0.6325 µM
  relative viability: 0.878

## NCI-H2085
CUDC-101 + Alpelisib; first compound 0.01 µM
  relative viability: 0.957
CUDC-101 + Alpelisib; first compound 0.03162 µM
  relative viability: 1.01
CUDC-101 + Alpelisib; first compound 0.1 µM
  relative viability: 0.925
CUDC-101 + Alpelisib; first compound 0.3162 µM
  relative viability: 1.01
CUDC-101 + Alpelisib; first compound 1 µM
  relative viability: 0.868
[1]; first compound 0.005 µM
  relative viability: 0.891
[1]; first compound 0.01581 µM
  relative viability: 0.811
[1]; first compound 0.05 µM
  relative viability: 0.888
[1]; first compound 0.1581 µM
  relative viability: 1.03
[1]; first compound 0.5 µM
  relative viability: 0.979
[2]; first compound 0.005 µM
  relative viability: 0.682
[2]; first compound 0.01581 µM
  relative viability: 0.887
[2]; first compound 0.05 µM
  relative viability: 0.792
[2]; first compound 0.1581 µM
  relative viability: 0.825
[2]; first compound 0.5 µM
  relative viability: 0.792
NVP-TAE684 + OSI-027; first compound 0.2 µM
  relative viability: 0.777
NVP-TAE684 + OSI-027; first compound 0.6325 µM
  relative viability: 0.739
NVP-TAE684 + OSI-027; first compound 2 µM
  relative viability: 0.57

## NCI-H2087
CUDC-101 + Alpelisib; first compound 0.01 µM
  relative viability: 1.02
CUDC-101 + Alpelisib; first compound 0.03162 µM
  relative viability: 1.02
CUDC-101 + Alpelisib; first compound 0.1 µM
  relative viability: 0.979
CUDC-101 + Alpelisib; first compound 0.3162 µM
  relative viability: 1.05
CUDC-101 + Alpelisib; first compound 1 µM
  relative viability: 0.783
[1]; first compound 0.005 µM
  relative viability: 1.08
[1]; first compound 0.01581 µM
  relative viability: 1.14
[1]; first compound 0.05 µM
  relative viability: 1.1
[1]; first compound 0.1581 µM
  relative viability: 1.12
[1]; first compound 0.5 µM
  relative viability: 0.969
[2]; first compound 0.005 µM
  relative viability: 0.908
[2]; first compound 0.01581 µM
  relative viability: 0.807
[2]; first compound 0.05 µM
  relative viability: 0.76
[2]; first compound 0.1581 µM
  relative viability: 0.954
[2]; first compound 0.5 µM
  relative viability: 0.727
NVP-TAE684 + OSI-027; first compound 0.2 µM
  relative viability: 0.538
NVP-TAE684 + OSI-027; first compound 0.6325 µM
  relative viability: 0.438
NVP-TAE684 + OSI-027; first compound 2 µM
  relative viability: 0.354

## COR-L 105
CUDC-101 + Alpelisib; first compound 0.01 µM
  relative viability: 1.17
CUDC-101 + Alpelisib; first compound 0.03162 µM
  relative viability: 0.848
CUDC-101 + Alpelisib; first compound 0.1 µM
  relative viability: 0.88
CUDC-101 + Alpelisib; first compound 0.3162 µM
  relative viability: 0.829
CUDC-101 + Alpelisib; first compound 1 µM
  relative viability: 0.52
[1]; first compound 0.005 µM
  relative viability: 0.802
[1]; first compound 0.01581 µM
  relative viability: 1.12
[1]; first compound 0.05 µM
  relative viability: 0.963
[1]; first compound 0.1581 µM
  relative viability: 1.26
[1]; first compound 0.5 µM
  relative viability: 0.878
[2]; first compound 0.005 µM
  relative viability: 0.679
[2]; first compound 0.01581 µM
  relative viability: 0.815
[2]; first compound 0.05 µM
  relative viability: 0.699
[2]; first compound 0.1581 µM
  relative viability: 0.628
[2]; first compound 0.5 µM
  relative viability: 0.728
NVP-TAE684 + OSI-027; first compound 0.2 µM
  relative viability: 0.636
NVP-TAE684 + OSI-027; first compound 0.6325 µM
  relative viability: 0.441
NVP-TAE684 + OSI-027; first compound 2 µM
  relative viability: 0.268
